Data as given in patent US9662328B2, “Targeting human thymidylate kinase induces DNA repair toxicity in malignant tumor cells” (NATIONAL YANG-MING UNIVERSITY, priority 2010, dated 2017).
Several values for one entry are separate records, joined by “and”; a condition that tells them apart may be missing. Equal values may be shown once.

How the values were obtained:
hTMPK [1] = target: T1, hTMPK (Homo sapiens, UniProt P23919); assay: In vitro inhibitory activity against human TMPK at 2 μM; type: biochemical; conditions: test compounds at 2 μM concentration
T1 sequence (P23919 1-212): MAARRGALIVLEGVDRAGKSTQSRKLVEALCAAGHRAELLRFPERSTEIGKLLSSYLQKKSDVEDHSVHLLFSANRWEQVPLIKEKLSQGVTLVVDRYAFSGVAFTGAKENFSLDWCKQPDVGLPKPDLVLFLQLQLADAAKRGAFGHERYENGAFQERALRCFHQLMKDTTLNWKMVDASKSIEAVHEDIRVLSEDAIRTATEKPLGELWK
Protocol: (§1) The TMPK reaction was started by adding purified hTMPK in 50 μl of TMPK assay buffer (100 mM Tris-HCl, pH 7.5, 100 mM KCl, 10 mM MgCl2, 50 μM ATP and 100 μM dTMP) in 96 wells plate at 25° C. for 10 min and terminated by adding 200 μl of DTNB (100 μM), followed by transferring 10 μl of reaction solution to a white 96-wellplate containing 90 μl of luciferase assay buffer (50 mM Glycine, 0.5 mM EDTA and 5 mM EDTA, pH 7.0, 0.1 μg of luciferase, 50 μM luciferin and 0.1% BSA). The luminescence was measured with a luminescence counter (Packard).
(§2) All reactions were performed in 96-well plates in an assay volume of 100 μl. The activity of hTMPK was measured at 25° C. using a modified NADH coupled colorimetric assay as described (Agarwal et al., 1978; Miyata et al., 2003; Ostermann et al., 2003), in which purified hTMPK was added to the buffer containing 100 mM Tris-HCl, pH 7.5, 100 mM KCl, 10 mM MgCl2, 0.5 mM phosphoenol pyruvate, 0.25 mM NADH, 5 units of lactate dehydrogenase, 4 units of pyruvate kinase, 1 mM ATP, and 200 μM dTMP. The change of NADH was measured by reading the absorbance at 340 nm. One unit of TMPK activity is defined as the conversion of […] of TMP to TDP per minute.
The in vitro inhibitory activities of test compounds (at 2 μM concentration) against human TMPK are shown in Table 3 and compared with that of YMU1 and YMU2.

[2] = test system: Human RM osteosarcoma cells; assay: Colony formation analysis of osteosarcoma cells; type: cell-based; conditions: for effect on suppressing colony formation, single agent: compound 5 μM or doxorubicin 20 nM alone, 2 days, replated for 1 week; for colony formation, combination with doxorubicin: compound 5 μM plus doxorubicin 20 nM
Protocol: FIG. 5. The effect of TMPK inhibitors alone or in combination with a chemotherapeutic agent on viability of osteosarcoma cells. (A) Human RM osteosarcoma cells (a representative bone cancer cells) were seeded at 2×10^4/35 mm dish and treated with Doxorubicin (20 nM), compound I-d-7 (5 μM), compound I-d-6 (5 μM) as indicated. After 2 days, medium was replaced with fresh medium without drug and cells were replated to a 24-well plate at 600 cells/well for 1 week for colony formation analysis.

hTMPK [3] = target: T1, hTMPK; assay: Inhibition constant (Ki) by NADH-coupled TMPK assay; type: biochemical; conditions: pre-incubated with 0.5 μg purified hTMPK for 10 min
Protocol: as §2
For determination of inhibition constant (Ki value), the inhibitor at the indicated concentration was pre-incubated with 0.5 μg of purified hTMPK protein for 10 min, and the initial velocity of the TMPK reaction was measured in the presence of ATP (1 mM) and different concentrations of TMP (2-200 μM) or in the presence of TMP (200 μM) and different concentrations of ATP (5-1000 μM) using NADH-coupled TMPK assay as described in the Methods of the Invention section. The Ki value was calculated from an equation of Ki=[I]/(Vmax/Vmax^I−1) wherein [I] is the concentration of inhibitor, and Vmax^I is the maximal velocity in the presence of inhibitor.

hTMPK [4] = target: T1, hTMPK; assay: IC50 determination by enzymatic assay; type: biochemical
Protocol: as §1, §2
In one embodiment, the IC50 values were determined by enzymatic assay.

MDA-MB231 cell = assay: Doxorubicin sensitization in MDA-MB231 cell treatment; type: cell-based; conditions: compound at 2 μM
Protocol: Cells plated into a 96-well plate (10^3 cells/well) were treated and cell viability was measured by MTS assay (Promega) (Cory et al., 1991). An annexin V-fluorescein isothiocyanate (FITC) apoptosis kit (Calbiochem) was used to detect apoptosis.

HCT-116 p53−/− cells = assay: γH2AX foci staining to indicate DNA damage (genotoxicity); type: cell-based
Protocol: FIG. 1. TMPK knockdown has no genotoxicity but promoting doxorubicin-induced cell death in p53 proficient and deficient colon cancer cells. […] These cells were fixed for γH2AX foci staining to indicate DNA damage and Western blotting analysis. (B-C) FITC-labeled annexin V apoptosis assay. (B) p53(+/+) HCT-116 were and (−/−) HCT-116 cells were infected with or without lentiviral TMPK^shRNA for 72 hr, treated with 0.5 μM doxorubicin for 24 hr (C) Cells were with or without lentiviral TS^shRNA for 72 hr with a subsequent 1 μM doxorubicin treatment for 24 hr as indicated Cells were then stained with FITC-labeled annexin V and observed by fluorescent microscopy. Green-positive indicates apoptotic cell.
For γH2AX staining, cells were fixed with 4% paraformaldehyde for 30 min at room temperature and were incubated with TBS (50 mM Tris-HCl, pH 7.4, 150 mM NaCl) plus 0.3% Triton X-100 for 5 min. The coverslips were blocked with MAXblock™ (Active Motif) for 1 h at 37° C., followed by staining with primary antibodies: anti-γH2AX monoclonal antibody (1:1000), anti-Rad51 polyclonal
To understand the differential DNA damage effect of blocking thymidylate kinase (TMPK) and thymidylate synthase (TS) in colon cancer cells. TMPK or TS expression was depleted in colon cancer cells, HCT-116 p53^−/−, by infection with lentivirus expressing corresponding shRNA. […]

| SMILES | inhibition at 2 µM (hTMPK [1]) [%] | IC50 (hTMPK [4]) | further results |
| --- | --- | --- | --- |
| CC(C)(C)OC(=O)N1CCN(C(=O)Cn2sc3cc(F)ccc3c2=O)CC1 [I-d-7, Tert-butyl 4-(2-(6-fluoro-3-oxobenzo[d]isothiazol-2(3H)-yl)acetyl)piperazine-1-carboxylate] | 66 ± 7 | – | effect on suppressing colony formation, single agent [2]: significant effect on suppressing colony formation; colony formation, combination with doxorubicin [2]: further decreased colony formation |
| Cc1cc(C)c2c(=O)n(CC(=O)N3CCN(C(=O)Cn4sc5ccccc5c4=O)CC3)sc2n1 [I-b-5, 4-[(3-Oxo-benzo[d]isothiazol-2-yl)acetyl]-1-[(4,6-dimethyl-3-15 oxoisothiazolo[5,4-b]pyridin-2-yl)acetyl]piperazine] | 79 ± 12 | – | Ki (hTMPK [3]): 170 ± 70 nM |
| Cc1cc(C)c2c(=O)n(CC(=O)N3CCN(C(=O)Cn4sc5nc(C)cc(C)c5c4=O)CC3)sc2n1 [I-b-4, 1,4-Bis[(3-oxo-4,6-dimethylisothiazolo[5,4-b]pyridin-2-yl)acetyl]piperazine] | 32 ± 2 | 800 nM | – |
| Cc1cc(N)nc2sn(CC(=O)N3CCN(C(=O)Cn4sc5nc(N)cc(C)c5c4=O)CC3)c(=O)c12 [I-b-6, 1,4-Bis[(6-amino-4-methyl-3-oxoisothiazolo[5,4-b]pyridin-2-yl)acetyl]piperazine] | 48 ± 5 | 1100 nM | – |
| Cc1cc(O)nc2sn(CC(=O)N3CCN(C(=O)OC(C)(C)C)CC3)c(=O)c12 [I-a-5, Tert-butyl 4-[(6-hydroxy-4-methyl-3-oxoisothiazolo[5,4-b]pyridin-2(3H)-2-yl)acetyl]piperazine-1-carboxylate] | 93 ± 9 | 500 nM | – |
| CC(C)(C)OC(=O)N1CCN(C(=O)Cn2sc3ccc(F)cc3c2=O)CC1 [I-d-6, Tert-butyl 4-(2-(5-fluoro-3-oxobenzo[d]isothiazol-2(3H)-yl)acetyl)piperazine-1-carboxylate] | 87 ± 5 | – | effect on suppressing colony formation, single agent [2]: significant effect on suppressing colony formation; colony formation, combination with doxorubicin [2]: further decreased colony formation |
| COc1cccc2c1C(=O)c1c(O)c3c(c(O)c1C2=O)C[C@@](O)(C(=O)CO)C[C@@H]3O[C@H]1C[C@H](N)[C@H](O)[C@H](C)O1 [doxorubicin, reference compound] | – | – | effect on suppressing colony formation, single agent [2]: no effect |
| CCOC(=O)N1CCN(C(=O)Cn2sc3nc(C)cc(C)c3c2=O)CC1 [YMU1] | – | – | enhancement on doxorubicin sensitization (MDA-MB231 cell): 30 fold |
| CCOC(=O)N1CCN(C(=O)Cn2sc3nc(C)cc(C)c3c2=O)CC1 [YMU1, reference compound] | 42 ± 15 | 2210 ± 60 nM | DNA lesions in nuclei (γH2AX foci) (HCT-116 p53−/− cells; human, 2 μM): not |
| O=C(NCC(=O)N1CCN(C(=O)Cn2sc3ncccc3c2=O)CC1)Nc1ccccc1 [I-b-1, 1-(2-Oxo-2-(4-(2-(3-oxoisothiazolo[5,4-b]pyridin-2(3H)-yl)acetyl)piperazin-1-yl)ethyl)-3-phenylurea] | 54 ± 7 | 1810 ± 280 nM | – |
| O=C(Cn1sc2ccccc2c1=O)N1CCN(C(=O)Cn2sc3ccccc3c2=O)CC1 [I-e-8, 1,4-Bis[(3-oxo-benzo[d]isothiazol-2-yl)acetyl]piperazine] | 89 ± 6 | 450 nM | – |
| O=C(NCC(=O)N1CCN(C(=O)Cn2sc3ccccc3c2=O)CC1)Nc1ccccc1 [I-e-5, 1-(2-Oxo-2-(4-(2-(3-oxobenzo[d]isothiazol-2(3H)-yl)acetyl)piperazin-1-yl)ethyl)-3-phenylurea] | 100 ± 7 | 1290 nM and 1730 nM | – |
| Cc1cc(C)c2c(=O)n(CC(=O)N3CCN(C(=O)CI)CC3)sc2n1 [I-b-3, 4,6-Dimethyl-2-[2-(4-(2-iodoacetyl)piperazin-1-yl)-2-oxoethyl]-isothiazolo[5,4-b]pyridin-3(2H)-one] | 29 ± 3 | – | – |
| O=c1[nH]c(=O)n([C@H]2C[C@H](O)[C@@H](CO)O2)cc1F [FdUrd, 5-fluoro-2′deoxyuridine] | – | – | DNA lesions in nuclei (γH2AX foci) (HCT-116 p53−/− cells; YMU1 2 μM for 2 days, FdUrd 2 μM for 1 day): gave DNA lesions in nuclei |
| CCOC(=O)N1CCN(C(=O)Cn2sc3ccccc3c2=O)CC1 [I-d-1, Ethyl 4-(2-(3-oxobenzo[d]isothiazol-2(3H)-yl)acetyl)piperazine-1-carboxylate] | 79 ± 5 | – | – |
